Reference: PMC8695447, “Novel Small Molecules Capable of Blocking mtRAS-Signaling Pathway” (Frontiers in Oncology, 2021)

Legend:
[1] = tested on: mtKRAS NSCLC cell; parameters: method as in earlier work; settings: ACK1 inhibitor; ref 37 (Tan et al.); cited from earlier work
[2] = tested on: HCT-116 (KRAS-G13D); test: Anti-proliferation assay on HCT-116; assay type: cell-based; settings: Homo sapiens, HCT-116; 72 h treatment; average with SD (n = 3, duplicate)
Protocol: (§1) Ba/F3-parental, OCI-AML3, U397 cells were purchased from DSMZ. MDA-MB-231, HCT-116, AsPC-1, H358, HT-29, SW480, and DU-145 cells were obtained from KCLB. MDA-MB-468 cells were obtained from ATCC. All cells were maintained in RPMI with 10% FBS and antibiotics. Cells were grown in a humidified 5% CO2 incubator at 37°C. Ba/F3-parental cells were grown in the presence of 10 ng/ml IL-3. NRAS-G12D or NRAS-G12V transformed Ba/F3 cell lines (Ba/F3-NRAS-G12D, and Ba/F3-NRAS-G12V, respectively) were cultured without IL-3, which were established by the procedure described as previously ([30]).
(§2) Approximately 3.0 × 10^3 cells/well were seeded in a 96-well cell culture plate. After stabilization, 1/3 serially diluted compound in DMSO was treated to the cell. […] All GI50 values were obtained in duplicate with three independent assays and averages with standard deviation are presented.

[3] = tested on: SW480 (KRAS-G12V); test: Anti-proliferation assay on SW480; assay type: cell-based; settings: Homo sapiens, SW480; 72 h treatment; average with SD (n = 3, duplicate)
Protocol: as §1, §2

[4] = tested on: U937 (KRAS, NRAS-wt); test: Anti-proliferation assay on U937; assay type: cell-based; settings: Homo sapiens, U-937; 72 h treatment; average with SD (n = 3, duplicate)
Protocol: as §1, §2

[5] = tested on: Ba/F3-parental cells; test: Anti-proliferation assay (CellTiter Glo) on Ba/F3-parental; assay type: cell-based; settings: Mus musculus, BaF3; 72 h treatment; with 10 ng/ml IL-3; average with SD (n = 3, duplicate)
Protocol: as §1, §2

[6] = tested on: MDA-MB-231 (KRAS-G13D); test: Anti-proliferation assay on MDA-MB-231; assay type: cell-based; settings: Homo sapiens, MDA-MB-231; 72 h treatment; average with SD (n = 3, duplicate)
Protocol: as §1, §2

[7] = tested on: AsPC-1 (KRAS-G12D); test: Anti-proliferation assay on AsPC-1; assay type: cell-based; settings: Homo sapiens, ASPC1; 72 h treatment; average with SD (n = 3, duplicate)
Protocol: as §1, §2

[8] = tested on: Ba/F3-NRAS-G12V cells; test: Anti-proliferation assay (CellTiter Glo) on Ba/F3-NRAS-G12V; assay type: cell-based; settings: Mus musculus, BaF3; 72 h treatment; average with SD (n = 3, duplicate)
Protocol: as §1, §2

[9] = tested on: HT-29 (KRAS-Q61L); test: Anti-proliferation assay on HT-29; assay type: cell-based; settings: Homo sapiens, HT-29; 72 h treatment; average with SD (n = 3, duplicate)
Protocol: as §1, §2

[10] = tested on: MDA-MB-468 (KRAS, NRAS-wt); test: Anti-proliferation assay on MDA-MB-468; assay type: cell-based; settings: Homo sapiens, MDA-MB-468; 72 h treatment; average with SD (n = 3, duplicate)
Protocol: as §1, §2

[11] = tested on: DU-145 (KRAS-G12V); test: Anti-proliferation assay on DU-145; assay type: cell-based; settings: Homo sapiens, DU-145; 72 h treatment; average with SD (n = 3, duplicate)
Protocol: as §1, §2

[12] = tested on: Ba/F3-NRAS-G12D cells; test: Anti-proliferation assay (CellTiter Glo) on Ba/F3-NRAS-G12D; assay type: cell-based; settings: Mus musculus, BaF3; 72 h treatment; average with SD (n = 3, duplicate)
Protocol: as §1, §2

[13] = tested on: OCI-AML3 (NRAS-Q61L); test: Anti-proliferation assay on OCI-AML3; assay type: cell-based, human; settings: Homo sapiens, OCI-AML-3; 72 h treatment; average with SD (n = 3, duplicate)
Protocol: as §1, §2

[14] = tested on: H358 (KRAS-G12C); test: Anti-proliferation assay on H358; assay type: cell-based; settings: Homo sapiens, NCI-H358; 72 h treatment; average with SD (n = 3, duplicate)
Protocol: as §1, §2

GI50 [2] [nM]	GI50 [3] [nM]	GI50 [4] [nM]	GI50 [6] [nM]	GI50 [7] [nM]	GI50 [8] [nM]	GI50 [9] [nM]	GI50 [10] [µM]	GI50 [11] [nM]	GI50 [12] [nM]	GI50 [13] [nM]	GI50 [14] [nM]	SMILES	mtKRAS NSCLC cell migration and invasion [1]	GI50 [5] [nM]
–	–	–	–	–	–	–	–	–	–	–	–	COc1cc(Nc2c(C#N)cnc3cc(OCCCN4CCN(C)CC4)c(OC)cc23)c(Cl)cc1Cl [bosutinib]	suppressed	–
77 ± 27	269 ± 61	690 ± 35	55 ± 20	186 ± 22	130 ± 28	164 ± 2	16.2 ± 6.02	76 ± 26	114 ± 18	36 ± 7	147 ± 31	CCN1CCC(n2cc(Nc3ncc4c(n3)N(C)C(=O)N(c3cc(NC(=O)c5cccc(C(F)(F)F)c5)ccc3C)C4)cn2)CC1 [Compound 13, N-(3-(7-((1-(1-Ethylpiperidin-4-yl)-1H-pyrazol-4-yl)amino)-1-methyl-2-oxo-1,4-dihydropyrimido[4,5-d]pyrimidin-3(2H)-yl)-4-methylphenyl)-3-(trifluoromethyl)benzamide]	–	889 ± 61
18 ± 6	382 ± 52	2220 ± 163	49 ± 12	136 ± 11	134 ± 45	227 ± 12	> 50	30 ± 8	120 ± 39	80 ± 16	265 ± 4	Cc1ccc(NC(=O)c2cccc(C(F)(F)F)c2)cc1N1Cc2cnc(Nc3ccc(N4CCOCC4)cc3)nc2N(C)C1=O [Compound 3, N-(4-Methyl-3-(1-methyl-7-((4-morpholinophenyl)amino)-2-oxo-1,4-dihydropyrimido[4,5-d]pyrimidin-3(2H)-yl)phenyl)-3-(trifluoromethyl)benzamide]	–	1060 ± 55
